In this test the target is T1, RIPK2 (Homo sapiens, UniProt O43353).
T1 construct: purchased Thermo Fisher Scientific (Life Technologies) SelectScreen
Briefly: SelectScreen LanthaScreen. Particulars: read-out: % displacement. Format: binding. The method, then: The in vitro kinase selectivity of NU5455 was determined using the SelectScreen Broad Assay Panel (Thermo Fisher Scientific) involving activity and binding assays (Supplemental Table 1). […] Class IA PI3Ks were measured using the p85α subunit.
Kinase [ATP] % Assay Kinase [ATP] % Assay Kinase [ATP] % Assay Kinase [ATP] % Assay […]
MAPK11 (p38 beta) Km app 9.5 Z RIPK2 n/a 3.1 L AKT2 (PKB beta) Km app 0.0 Z PRKCE (PKC epsilon) Km app -4.9 Z […]
SGK (SGK1) Km app 8.5 Z MAP4K2 (GCK) Km app 2.7 Z TLK2 n/a -0.3 L STK38 (NDR) n/a -5.9 L
MERTK (cMER) Km app 8.3 Z CDK2/cyclin A Km app 2.7 Z TGFBR1 (ALK5) n/a -0.4 L MATK (HYL) Km app -6.3 Z
FYN Km app 8.3 Z EPHA1 Km app 2.7 Z CLK3 Km app -0.5 Z ABL1 E255K Km app -6.6 Z
TEC n/a 8.1 L CDK2/cyclin E1 n/a 2.7 L MAP3K14 (NIK) n/a -0.5 L STK17A (DRAK1) n/a -6.6 L
KIT V654A n/a 8.1 L TESK2 n/a 2.7 L AKT3 (PKB gamma) Km app -0.5 Z JAK2 JH1 JH2 Km app -6.7 Z
ROS1 Km app 8.0 Z SPHK1 Km app 2.7 A MAP3K9 (MLK1) Km app -0.5 Z PRKACB (PRKAC beta) n/a -6.8 L
FGFR3 K650E Km app 7.9 Z AMPK A2/B1/G1 Km app 2.6 Z IKBKB (IKK beta) Km app -0.6 Z PDGFRA (PDGFR alpha) Km app -6.8 Z
RAF1 (cRAF) Y340D Y341D 100 7.9 Z DYRK3 Km app 2.6 Z CAMK2A (CaMKII alpha) Km app -0.6 Z NEK9 Km app -7.2 Z
PI4KA (PI4K alpha) 10 7.8 A CSNK1D (CK1 delta) Km app 2.6 Z PRKCB1 (PKC beta I) Km app -0.7 Z PDK1 Km app -7.3 Z […]

Our source for the inhibition values is publication PMC6934184, “Selective DNA-PKcs inhibition extends the therapeutic index of localized radiotherapy and chemotherapy” (The Journal of Clinical Investigation, 2019).

Each structure is given as a SMILES string.

T1 sequence (O43353 whole entry): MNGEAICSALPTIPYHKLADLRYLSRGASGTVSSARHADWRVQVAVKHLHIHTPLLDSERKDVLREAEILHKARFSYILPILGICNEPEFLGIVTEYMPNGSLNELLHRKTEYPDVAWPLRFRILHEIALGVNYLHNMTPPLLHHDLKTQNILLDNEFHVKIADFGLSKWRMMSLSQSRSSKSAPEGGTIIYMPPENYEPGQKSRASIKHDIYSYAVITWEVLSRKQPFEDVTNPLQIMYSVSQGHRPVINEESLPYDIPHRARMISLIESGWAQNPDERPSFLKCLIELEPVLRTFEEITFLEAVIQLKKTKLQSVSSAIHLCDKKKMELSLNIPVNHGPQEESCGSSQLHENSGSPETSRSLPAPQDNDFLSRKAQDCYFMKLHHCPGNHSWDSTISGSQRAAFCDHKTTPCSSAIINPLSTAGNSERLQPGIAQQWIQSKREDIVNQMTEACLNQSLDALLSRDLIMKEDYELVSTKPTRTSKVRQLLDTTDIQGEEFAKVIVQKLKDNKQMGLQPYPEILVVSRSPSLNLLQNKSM

For `CN(C(=O)CN1CCOCC1)c1ccc2sc3c(-c4cccc5c(=O)cc(N6CC7CCC(C6)O7)oc45)cccc3c2c1` [NU5455], the inhibition at 1 µM turned out to be 3.1%.
